Laboratory results from patent US8039504B2 (priority 2003, dated 2011).
Like-named read-outs stand apart in the source and are kept apart here.

How the values were obtained:
Experiment in all cases: microbe, parasite or virus in culture
Format in all cases: cell-based
Vaccinia virus (NYCBH) = details: Orthopoxvirus vaccinia, Vero, 72 h
wild type cowpox virus = details: read-out: Cowpox EC50
[1] = tested on: monkeypox virus (Zaire (V79-1-005-scab)); details: read-out: Monkeypox EC50
camelpox = details: read-out: Camelpox EC50
[2] = read-out: EC50 of reference standards in vaccinia CPE assay

Nc1ccn(C[C@@H](CO)OCP(=O)(O)O)c(=O)n1 [CDV, (S)-1-(3-hydroxy-2-phosphonylmethoxypropyl)cytosine, reference compound]
EC50 (Vaccinia virus (NYCBH); [2]): 84000 ± 15000 nM

O=C(NN1C(=O)[C@@H]2C3C=CC(C4CC43)[C@@H]2C1=O)c1ccncc1 (some centres unmarked) [Example 2, N-(3,3a,4,4a,5,5a,6,6a,- octahydro-1,3-dioxo-4,6-ethenocycloprop[f]isoindol-2(1H)-yl)-4-pyridinecarboxamide]
EC50 (Vaccinia virus (NYCBH); read-out: Vaccinia EC50): < 500 nM
EC50 (wild type cowpox virus): 1000 to 5000 nM
EC50 [1]: < 500 nM
EC50 (camelpox): < 500 nM

O=C(NN1C(=O)[C@@H]2C3C=CC(C4CC43)[C@@H]2C1=O)c1ccc(Br)cc1 (some centres unmarked) [Example 3, 4-Bromo-N-(3,3a,4,4a,5,5a,6,6a,- octahydro-1,3-dioxo-4,6-ethenocycloprop[f]isoindol-2(1H)-yl)-benzamide]
EC50 (Vaccinia virus (NYCBH); read-out: Vaccinia EC50): < 500 nM
EC50 (wild type cowpox virus): 500 to 1000 nM
EC50 [1]: < 500 nM
EC50 (camelpox): < 500 nM

O=C(NN1C(=O)[C@@H]2C3C=CC(C4CC43)[C@@H]2C1=O)c1cccc(Br)c1 (some centres unmarked) [Example 4, 3-Bromo-N-(3,3a,4,4a,5,5a,6,6a,- octahydro-1,3-dioxo-4,6-ethenocycloprop[f]isoindol-2(1H)-yl)-benzamide]
EC50 (Vaccinia virus (NYCBH); read-out: Vaccinia EC50): < 500 nM
EC50 (wild type cowpox virus): 1000 to 5000 nM

O=C(NN1C(=O)[C@@H]2C3C=CC(C4CC43)[C@@H]2C1=O)c1cccc(Cl)c1 (some centres unmarked) [Example 5, 3-Chloro-N-(3,3a,4,4a, 5,5a,6,6a,- octahydro-1,3-dioxo-4,6-ethenocycloprop[f]isoindol-2(1H)-yl)-benzamide]
EC50 (Vaccinia virus (NYCBH); read-out: Vaccinia EC50): 500 to 1000 nM
EC50 (wild type cowpox virus): 500 to 1000 nM

O=C(NN1C(=O)[C@@H]2C3C=CC(C4CC43)[C@@H]2C1=O)c1ccccc1Br (some centres unmarked) [Example 6, 2-Bromo-N-(3,3a,4,4a,5,5a,6,6a,- octahydro-1,3-dioxo-4,6-ethenocycloprop[f]isoindol-2(1H)-yl)-benzamide]
EC50 (Vaccinia virus (NYCBH); read-out: Vaccinia EC50): 500 to 1000 nM
EC50 (wild type cowpox virus): > 5000 nM

O=C(NN1C(=O)[C@@H]2C3C=CC(C4CC43)[C@@H]2C1=O)c1ccccc1Cl (some centres unmarked) [Example 7, 2-Chloro-N-(3,3a,4,4a,5,5a,6,6a,- octahydro-1,3-dioxo-4,6-ethenocycloprop[f]isoindol-2(1H)-yl)-benzamide]
EC50 (Vaccinia virus (NYCBH); read-out: Vaccinia EC50): < 500 nM

O=C(NN1C(=O)[C@@H]2C3C=CC(C4CC43)[C@@H]2C1=O)c1ccc(Cl)cc1 (some centres unmarked) [Example 8, 4-Chloro-N-(3,3a,4,4a,5,5a,6,6a,- octahydro-1,3-dioxo-4,6-ethenocycloprop[f]isoindol-2(1H)-yl)-benzamide]
EC50 (Vaccinia virus (NYCBH); read-out: Vaccinia EC50): < 500 nM
EC50 (wild type cowpox virus): 500 to 1000 nM

O=C(NN1C(=O)[C@@H]2C3C=CC(C4CC43)[C@@H]2C1=O)c1cccnc1 (some centres unmarked) [Example 9, N-(3,3a,4,4a,5,5a,6,6a,- octahydro-1,3-dioxo-4,6-ethenocycloprop[f]isoindol-2(1H)-yl)-3-pyridinecarboxamide]
EC50 (Vaccinia virus (NYCBH); read-out: Vaccinia EC50): < 500 nM
EC50 (wild type cowpox virus): > 5000 nM

O=C(NN1C(=O)[C@@H]2C3C=CC(C4CC43)[C@@H]2C1=O)c1ccccn1 (some centres unmarked) [Example 10, N-(3,3a,4,4a,5,5a,6,6a,- octahydro-1,3-dioxo-4,6-ethenocycloprop[f]isoindol-2(1H)-yl)-2-pyridinecarboxamide]
EC50 (Vaccinia virus (NYCBH); read-out: Vaccinia EC50): > 5000 nM
EC50 (wild type cowpox virus): > 5000 nM

COc1ccc(C(=O)NN2C(=O)[C@@H]3C4C=CC(C5CC54)[C@@H]3C2=O)cc1 (some centres unmarked) [Example 11, 4-Methoxy-N-(3,3a,4,4a,5,5a,6,6a,- octahydro-1,3-dioxo-4,6-ethenocycloprop[f]isoindol-2(1H)-yl)-benzamide]
EC50 (Vaccinia virus (NYCBH); read-out: Vaccinia EC50): 1000 to 5000 nM
EC50 (wild type cowpox virus): > 5000 nM

O=C(NN1C(=O)[C@@H]2C3C=CC(C4CC43)[C@@H]2C1=O)c1ccc([N+](=O)[O-])cc1 (some centres unmarked) [Example 12, 4-Nitro-N-(3,3a,4,4a,5,5a,6,6a,- octahydro-1,3-dioxo-4,6-ethenocycloprop[f]isoindol-2(1H)-yl)-benzamide]
EC50 (Vaccinia virus (NYCBH); read-out: Vaccinia EC50): < 500 nM
EC50 (wild type cowpox virus): < 500 nM

O=C(NN1C(=O)[C@@H]2C3C=CC(C4CC43)[C@@H]2C1=O)c1ccc(F)cc1 (some centres unmarked) [Example 13, 4-Fluoro-N-(3,3a,4,4a,5,5a,6,6a,- octahydro-1,3-dioxo-4,6-ethenocycloprop[f]isoindol-2(1H)-yl)-benzamide]
EC50 (Vaccinia virus (NYCBH); read-out: Vaccinia EC50): < 500 nM
EC50 (wild type cowpox virus): 500 to 1000 nM

O=C(NN1C(=O)[C@@H]2C3C=CC(C4CC43)[C@@H]2C1=O)c1cccc(F)c1 (some centres unmarked) [Example 14, 3-Fluoro-N-(3,3a,4,4a,5,5a,6,6a,- octahydro-1,3-dioxo-4,6-ethenocycloprop[f]isoindol-2(1H)-yl)-benzamide]
EC50 (Vaccinia virus (NYCBH); read-out: Vaccinia EC50): < 500 nM
EC50 (wild type cowpox virus): 1000 to 5000 nM

O=C(NN1C(=O)[C@@H]2C3CCC(C4CC43)[C@@H]2C1=O)c1ccc(Br)cc1 (some centres unmarked) [Example 15, 4-Bromo-N-(3,3a,4,4a,5,5a,6,6a-octahydro-1,3-dioxo-4,6-ethanocycloprop[f]isoindol-2(1H)-yl)-benzamide]
EC50 (Vaccinia virus (NYCBH); read-out: Vaccinia EC50): < 500 nM
EC50 (wild type cowpox virus): < 500 nM
EC50 [1]: < 500 nM
EC50 (camelpox): < 500 nM

O=C(NN1C(=O)C2CCCCC2C1=O)c1ccc(Br)cc1 (centres unmarked) [Example 17, 4-Bromo-N-(octahydro-1,3-dioxo-2H-isoindol-2-yl)-benzamide]
EC50 (Vaccinia virus (NYCBH); read-out: Vaccinia EC50): < 500 nM
EC50 (wild type cowpox virus): 1000 to 5000 nM

O=C(NN1C(=O)[C@@H]2C3C=CC(CC3)[C@@H]2C1=O)c1ccc(Br)cc1 [Example 18, 4-Bromo-N-bicyclo[2.2.2]oct-5-ene-2,3-dicarboximido-benzamide]
EC50 (Vaccinia virus (NYCBH); read-out: Vaccinia EC50): < 500 nM
EC50 (wild type cowpox virus): < 500 nM

O=C(NN1C(=O)[C@@H]2C3CCC(CC3)[C@@H]2C1=O)c1ccc(Br)cc1 [Example 19, 4-Bromo-N-bicyclo[2.2.2]octane-2,3-dicarboximido-benzamide]
EC50 (Vaccinia virus (NYCBH); read-out: Vaccinia EC50): < 500 nM
EC50 (wild type cowpox virus): < 500 nM

N#Cc1ccc(C(=O)NN2C(=O)[C@@H]3C4C=CC(C5CC54)[C@@H]3C2=O)cc1 (some centres unmarked) [Example 20, 4-Cyano-N-(3,3a,4,4a,5,5a,6,6a,- octahydro-1,3-dioxo-4,6-ethenocycloprop[f]isoindol-2(1H)-yl)-benzamide]
EC50 (Vaccinia virus (NYCBH); read-out: Vaccinia EC50): < 500 nM
EC50 (wild type cowpox virus): < 500 nM

O=C(NN1C(=O)[C@@H]2C3CCC([C@H]4C[C@@H]34)[C@@H]2C1=O)c1ccc(C(F)(F)F)cc1 [Example 21, 4-Trifluoromethyl-N-(3,3a,4,4a,5,5a,6,6a,- octahydro-1,3-dioxo-4,6-ethanocycloprop[f]isoindol-2(1H)-yl)-benzamide]
EC50 (Vaccinia virus (NYCBH); read-out: Vaccinia EC50): < 500 nM
EC50 (wild type cowpox virus): < 500 nM

Cc1ccc(C(=O)NN2C(=O)[C@@H]3C4C=CC(C5CC54)[C@@H]3C2=O)cc1 (some centres unmarked) [Example 22, 4-Methyl-N-(3,3a,4,4a,5,5a,6,6a,- octahydro-1,3-dioxo-4,6-ethanocycloprop[f]isoindol-2(1H)-yl)-benzamide]
EC50 (Vaccinia virus (NYCBH); read-out: Vaccinia EC50): < 500 nM
EC50 (wild type cowpox virus): 1000 to 5000 nM

O=C(NN1C(=O)[C@@H]2C3C=CC([C@@H]2C1=O)C31CC1)c1cccc(Br)c1 [Example 23, 3-Bromo-N-(1′,3,3′a,4′,7,7′a-hexahydro-1′,3′,dioxospiro [cyclopropane-1,8′-[4,7]methano[2H]isoindol]-2′-yl)-benzamide]
EC50 (Vaccinia virus (NYCBH); read-out: Vaccinia EC50): < 500 nM

O=C1[C@@H]2C3C=CC(C4CC43)[C@@H]2C(=O)N1NC(=O)C12CC3CC(CC(C3)C1)C2 (some centres unmarked) [Example 24, N-(3,3a,4,4a,5,5a,6,6a,- octahydro-1,3-dioxo-4,6-ethenocycloprop[f]isoindol-2(1H)-yl)-tricyclo[3.3.1.13.7] decane-1-carboxamide]
EC50 (Vaccinia virus (NYCBH); read-out: Vaccinia EC50): < 500 nM
EC50 (wild type cowpox virus): 500 to 1000 nM
EC50 [1]: < 500 nM
EC50 (camelpox): < 500 nM

O=C(Cc1ccccc1)NN1C(=O)[C@@H]2C3C=CC(C4CC43)[C@@H]2C1=O (some centres unmarked) [Example 25, N-(3,3a,4,4a,5,5a,6,6a,- octahydro-1,3-dioxo-4,6-ethenocycloprop[f]isoindol-2(1H)-yl)-benzeneacetamide]
EC50 (Vaccinia virus (NYCBH); read-out: Vaccinia EC50): 500 to 1000 nM
EC50 (wild type cowpox virus): > 5000 nM

O=C(NN1C(=O)[C@@H]2C3C=CC(C3)[C@@H]2C1=O)c1ccc(Br)cc1 [Example 26, 4-Bromo-N-(1,3,3a,4,7,7a-hexahydro-1,3,-dioxo-4,7-methano-2H-isoindol-2-yl)-benzamide]
EC50 (Vaccinia virus (NYCBH); read-out: Vaccinia EC50): < 500 nM

O=C(NN1C(=O)[C@@H]2C3C=CC(C3)[C@@H]2C1=O)c1ccc(Cl)cc1Cl [Example 27, 2,4-Dichloro-N-(1,3,3a,4,7,7a-hexahydro-1,3,-dioxo-4,7-methano-2H-isoindol-2-yl)-benzamide]
EC50 (Vaccinia virus (NYCBH); read-out: Vaccinia EC50): 500 to 1000 nM

O=C(NN1C(=O)[C@@H]2C3C=CC(CC3)[C@@H]2C1=O)c1ccc(C(F)(F)F)cc1 [Example 28, 4-Trifluoromethyl-N-bicylo [2.2.2]oct-5-ene-2,3-dicarboximido-benzamide]
EC50 (Vaccinia virus (NYCBH); read-out: Vaccinia EC50): < 500 nM
EC50 (wild type cowpox virus): < 500 nM

O=C(NN1C(=O)[C@@H]2C3CCC(CC3)[C@@H]2C1=O)c1ccc(C(F)(F)F)cc1 [Example 29, 4-Trifluoromethyl-N-bicyclo [2.2.2]octane-2,3-dicarboximido-benzamide]
EC50 (Vaccinia virus (NYCBH); read-out: Vaccinia EC50): < 500 nM
EC50 (wild type cowpox virus): < 500 nM

Cc1nc(C)c(C(=O)NN2C(=O)[C@@H]3C4C=CC(C5CC54)[C@@H]3C2=O)s1 (some centres unmarked) [Example 41, 2,4-Dimethyl-N-(3,3a,4,4a,5,5a,6,6a-octahydro-1,3-dioxo-4,6-ethenocycloprop[f]isoindol-2(1H)-yl)-thiazole-5-carboxamide]
EC50 (Vaccinia virus (NYCBH); read-out: Vaccinia EC50): < 500 nM
EC50 (wild type cowpox virus): 1000 to 5000 nM

O=C(O)CP(=O)(O)O [PAA, phosphonoacetic acid, reference compound]
EC50 (Vaccinia virus (NYCBH); [2]): 985000 ± 85000 nM
